Literature values in US11179350B2, “Nutraceutical compositions comprising C60 and Cox-2 inhibitor” (priority 2018, dated 2021).

Assays:
[1] = more potent than Vitamin C
mice = mice (Quick et al. 2008)
rats = settings: repeated oral administration (Baati et al. 2012)
[2] = system: tumor growth and metastasis; settings: Prylutska et al. 2011

## c12c3c4c5c1c1c6c7c2c2c8c3c3c9c4c4c%10c5c5c1c1c6c6c%11c7c2c2c7c8c3c3c8c9c4c4c9c%10c5c5c1c1c6c6c%11c2c2c7c3c3c8c4c4c9c5c1c1c6c2c3c41 [C60, Buckminsterfullerene]
[1]
  antioxidant potency relative to Vitamin C: 172 times
mice
  prolongation of life: prolong life
rats
  prolongation of life: prolong life
[2]
  tumor growth and metastasis: inhibit tumor growth and metastasis
